Test results from ChEMBL document CHEMBL4814033, “Unique para-aminobenzenesulfonyl oxadiazoles as novel structural potential membrane active antibacterial agents towards drug-resistant methicillin resistant Staphylococcus aureus” (2021).
In brackets after ≈: the same amount, converted by molar mass. Activity calls are given as the source filed them. The rule behind the calls is not given here.

Legend:
Enterococcus faecalis = experiment: Antibacterial activity against Enterococcus faecalis by broth microdilution assay; assay type: functional
Staphylococcus aureus [1] = experiment: Antibacterial activity against methicillin-resistant Staphylococcus aureus by broth microdilution assay; assay type: functional
Acinetobacter baumannii = experiment: Antibacterial activity against Acinetobacter baumannii by broth microdilution assay; assay type: functional
Klebsiella pneumoniae = experiment: Antibacterial activity against Klebsiella pneumonia by broth microdilution assay; assay type: functional
Staphylococcus aureus [2] = experiment: Antibacterial activity against Staphylococcus aureus ATCC 25923 by broth microdilution assay; assay type: functional
Pseudomonas aeruginosa [3] = experiment: Antibacterial activity against Pseudomonas aeruginosa ATCC 27853 by broth microdilution assay; assay type: functional
Pseudomonas aeruginosa [4] = experiment: Antibacterial activity against Pseudomonas aeruginosa by broth microdilution assay; assay type: functional
Staphylococcus aureus [5] = experiment: Potency index, ratio of MIC of norfloxacin to MIC of compound for antibacterial activity against methicillin-resistant Staphylococcus aureus by broth microdilution assay; assay type: functional
Staphylococcus aureus [6] = experiment: Antibacterial activity against Staphylococcus aureus ATCC 29213 by broth microdilution assay; assay type: functional
Escherichia coli [7] = experiment: Antibacterial activity against Escherichia coli ATCC 25922 by broth microdilution assay; assay type: functional
Escherichia coli [8] = experiment: Antibacterial activity against Escherichia coli by broth microdilution assay; assay type: functional
Staphylococcus aureus [9] = experiment: Antibacterial activity against Staphylococcus aureus by broth microdilution assay; assay type: functional
Calf thymus DNA [10] = experiment: Binding affinity to calf thymus DNA assessed as enhancement in maximum absorption of DNA upto 26.7 uM by UV-vis absorption spectroscopy; assay type: tissue-based; conditions: Bos taurus, dose microM <=26.7
Cell membrane = experiment: Disruption of inner cell membrane in methicillin-resistant Staphylococcus aureus at 4 times of MIC measured within 14 mins by PI uptake assay; assay type: subcellular
Calf thymus DNA [11] = experiment: Binding affinity to calf thymus DNA assessed as red shift in absorption spectra upto 26.7 uM by UV-vis absorption spectroscopy; assay type: tissue-based; conditions: Bos taurus, dose microM <=26.7
Calf thymus DNA [12] = experiment: Binding affinity to calf thymus DNA assessed as reduction in fluorescence intensity of DNA-AO complex by AO dye based fluorescence analysis; conditions: Bos taurus
Staphylococcus aureus [13] = experiment: Antibacterial activity against methicillin-resistant Staphylococcus aureus assessed as metabolic inactivation by Alamar blue assay; assay type: functional, organism-based
Staphylococcus aureus [14] = experiment: Antibacterial activity against methicillin-resistant Staphylococcus aureus assessed as reduction in bacterial growth measured after 16 passages; assay type: functional, organism-based

| Compound | MIC (Enterococcus faecalis) [µg/mL] | MIC (Staphylococcus aureus [1]) [µg/mL] | MIC (Acinetobacter baumannii) [µg/mL] | MIC (Klebsiella pneumoniae) [µg/mL] | MIC (Staphylococcus aureus [2]) [µg/mL] | MIC (Pseudomonas aeruginosa [3]) [µg/mL] | MIC (Pseudomonas aeruginosa [4]) [µg/mL] | Ratio (Staphylococcus aureus [5]) | MIC (Staphylococcus aureus [6]) [µg/mL] | MIC (Escherichia coli [7]) [µg/mL] | MIC (Escherichia coli [8]) [µg/mL] | MIC (Staphylococcus aureus [9]) [µg/mL] | Activity (Calf thymus DNA [10]) | Activity (Cell membrane) | Activity (Calf thymus DNA [11]) | Activity (Calf thymus DNA [12]) | Activity (Staphylococcus aureus [13]) | Activity (Staphylococcus aureus [14]) |
| --- | --- | --- | --- | --- | --- | --- | --- | --- | --- | --- | --- | --- | --- | --- | --- | --- | --- | --- |
| CC(=O)Nc1ccc(S(=O)(=O)Cc2nnc(SCCF)o2)cc1 | 64 (≈ 178 µM) | 2 (≈ 5.56 µM) | 64 (≈ 178 µM) | 32 (≈ 89 µM) | 128 (≈ 356 µM) | 128 (≈ 356 µM) | 64 (≈ 178 µM) | 8 | 32 (≈ 89 µM) | 64 (≈ 178 µM) | 32 (≈ 89 µM) | 64 (≈ 178 µM) |  |  |  |  |  |  |
| CC(=O)CSc1nnc(CS(=O)(=O)c2ccc(NC(C)=O)cc2)o1 | 64 (≈ 173 µM) | 2 (≈ 5.41 µM) | 64 (≈ 173 µM) | 16 (≈ 43.3 µM) | 128 (≈ 346 µM) | 128 (≈ 346 µM) | 64 (≈ 173 µM) |  | 32 (≈ 86.6 µM) | 64 (≈ 173 µM) | 16 (≈ 43.3 µM) | 64 (≈ 173 µM) |  |  |  |  |  |  |
| C=CCSc1nnc(CS(=O)(=O)c2ccc(NC(C)=O)cc2)o1 | 64 (≈ 181 µM) | 256 (≈ 724 µM) | 256 (≈ 724 µM) | 256 (≈ 724 µM) | 256 (≈ 724 µM) | 256 (≈ 724 µM) | 256 (≈ 724 µM) |  | 256 (≈ 724 µM) | 256 (≈ 724 µM) | 256 (≈ 724 µM) | 256 (≈ 724 µM) |  |  |  |  |  |  |
| CCCCCCCCCCCCSc1nnc(CS(=O)(=O)c2ccc(NC(C)=O)cc2)o1 | 128 (≈ 266 µM) | 128 (≈ 266 µM) | 256 (≈ 531 µM) | 64 (≈ 133 µM) | 256 (≈ 531 µM) | 256 (≈ 531 µM) | 256 (≈ 531 µM) |  | 256 (≈ 531 µM) | 256 (≈ 531 µM) | 256 (≈ 531 µM) | 256 (≈ 531 µM) |  |  |  |  |  |  |
| CC(=O)Nc1ccc(S(=O)(=O)Cc2nnc(SCC(=O)O)o2)cc1 | 64 (≈ 172 µM) | 32 (≈ 86.2 µM) | 32 (≈ 86.2 µM) | 64 (≈ 172 µM) | 64 (≈ 172 µM) | 128 (≈ 345 µM) | 128 (≈ 345 µM) |  | 64 (≈ 172 µM) | 128 (≈ 345 µM) | 32 (≈ 86.2 µM) | 128 (≈ 345 µM) |  |  |  |  |  |  |
| CCN(CC)CCSc1nnc(CS(=O)(=O)c2ccc(NC(C)=O)cc2)o1 | 64 (≈ 155 µM) | 32 (≈ 77.6 µM) | 32 (≈ 77.6 µM) | 128 (≈ 310 µM) | 64 (≈ 155 µM) | 64 (≈ 155 µM) | 128 (≈ 310 µM) |  | 64 (≈ 155 µM) | 128 (≈ 310 µM) | 64 (≈ 155 µM) | 128 (≈ 310 µM) |  |  |  |  |  |  |
| CCCCSc1nnc(CS(=O)(=O)c2ccc(NC(C)=O)cc2)o1 | 256 (≈ 693 µM) | 256 (≈ 693 µM) | 256 (≈ 693 µM) | 256 (≈ 693 µM) | 256 (≈ 693 µM) | 256 (≈ 693 µM) | 256 (≈ 693 µM) |  | 256 (≈ 693 µM) | 256 (≈ 693 µM) | 128 (≈ 346 µM) | 128 (≈ 346 µM) |  |  |  |  |  |  |
| CCOC(=O)CSc1nnc(CS(=O)(=O)c2ccc(NC(C)=O)cc2)o1 | 128 (≈ 320 µM) | 16 (≈ 40.1 µM) | 32 (≈ 80.1 µM) | 64 (≈ 160 µM) | 64 (≈ 160 µM) | 128 (≈ 320 µM) | 64 (≈ 160 µM) |  | 64 (≈ 160 µM) | 128 (≈ 320 µM) | 32 (≈ 80.1 µM) | 128 (≈ 320 µM) |  |  |  |  |  |  |
| CC(=O)Nc1ccc(S(=O)(=O)Cc2nnc(SCC#N)o2)cc1 | 256 (≈ 726 µM) | 256 (≈ 726 µM) | 128 (≈ 363 µM) | 256 (≈ 726 µM) | 256 (≈ 726 µM) | 256 (≈ 726 µM) | 256 (≈ 726 µM) |  | 256 (≈ 726 µM) | 256 (≈ 726 µM) | 256 (≈ 726 µM) | 128 (≈ 363 µM) |  |  |  |  |  |  |
| CC(=O)Nc1ccc(S(=O)(=O)Cc2nnc(SCc3ccc(F)cc3F)o2)cc1 | 128 (≈ 291 µM) | 16 (≈ 36.4 µM) | 64 (≈ 146 µM) | 128 (≈ 291 µM) | 64 (≈ 146 µM) | 64 (≈ 146 µM) | 64 (≈ 146 µM) |  | 32 (≈ 72.8 µM) | 128 (≈ 291 µM) | 8 (≈ 18.2 µM) | 64 (≈ 146 µM) |  |  |  |  |  |  |
| CC(=O)Nc1ccc(S(=O)(=O)Cc2nnc(SCC3CC3)o2)cc1 | 64 (≈ 174 µM) | 8 (≈ 21.8 µM) | 64 (≈ 174 µM) | 128 (≈ 348 µM) | 64 (≈ 174 µM) | 64 (≈ 174 µM) | 64 (≈ 174 µM) |  | 64 (≈ 174 µM) | 128 (≈ 348 µM) | 8 (≈ 21.8 µM) | 128 (≈ 348 µM) |  |  |  |  |  |  |
| CCCCCCSc1nnc(CS(=O)(=O)c2ccc(NC(C)=O)cc2)o1 | 128 (≈ 322 µM) | 1 (≈ 2.52 µM) | 32 (≈ 80.5 µM) | 8 (≈ 20.1 µM) | 256 (≈ 644 µM) | 256 (≈ 644 µM) | 256 (≈ 644 µM) | 16 | 256 (≈ 644 µM) | 128 (≈ 322 µM) | 256 (≈ 644 µM) | 256 (≈ 644 µM) | Active | Active | Active | Active | Active | Active |
| CCn1cc(C(=O)O)c(=O)c2cc(F)c(N3CCNCC3)cc21 [NORFLOXACIN] | 8 (≈ 25.1 µM) | 16 (≈ 50.1 µM) | 8 (≈ 25.1 µM) | 16 (≈ 50.1 µM) | 8 (≈ 25.1 µM) | 8 (≈ 25.1 µM) | 4 (≈ 12.5 µM) |  | 8 (≈ 25.1 µM) | 8 (≈ 25.1 µM) | 8 (≈ 25.1 µM) | 4 (≈ 12.5 µM) |  |  |  |  |  | inactive |
| C#CCSc1nnc(CS(=O)(=O)c2ccc(NC(C)=O)cc2)o1 | 128 (≈ 364 µM) | 8 (≈ 22.8 µM) | 128 (≈ 364 µM) | 256 (≈ 728 µM) | 64 (≈ 182 µM) | 256 (≈ 728 µM) | 64 (≈ 182 µM) |  | 32 (≈ 91.1 µM) | 128 (≈ 364 µM) | 128 (≈ 364 µM) | 64 (≈ 182 µM) |  |  |  |  |  |  |
| CC(=O)Nc1ccc(S(=O)(=O)Cc2nnc(SCCO)o2)cc1 | 32 (≈ 89.5 µM) | 32 (≈ 89.5 µM) | 64 (≈ 179 µM) | 16 (≈ 44.8 µM) | 32 (≈ 89.5 µM) | 128 (≈ 358 µM) | 32 (≈ 89.5 µM) |  | 32 (≈ 89.5 µM) | 64 (≈ 179 µM) | 32 (≈ 89.5 µM) | 64 (≈ 179 µM) |  |  |  |  |  |  |
| CC(=O)Nc1ccc(S(=O)(=O)Cc2nnc(SCc3ccc(Cl)cc3Cl)o2)cc1 | 128 (≈ 271 µM) | 2 (≈ 4.23 µM) | 32 (≈ 67.7 µM) | 16 (≈ 33.9 µM) | 256 (≈ 542 µM) | 256 (≈ 542 µM) | 64 (≈ 135 µM) |  | 32 (≈ 67.7 µM) | 64 (≈ 135 µM) | 16 (≈ 33.9 µM) | 64 (≈ 135 µM) |  |  |  |  |  |  |
| CC(=O)Nc1ccc(S(=O)(=O)Cc2nnc(S)o2)cc1 | 128 (≈ 408 µM) | 256 (≈ 817 µM) | 256 (≈ 817 µM) | 256 (≈ 817 µM) | 256 (≈ 817 µM) | 256 (≈ 817 µM) | 256 (≈ 817 µM) |  | 256 (≈ 817 µM) | 256 (≈ 817 µM) | 256 (≈ 817 µM) | 256 (≈ 817 µM) |  |  |  |  |  |  |
